Data: article PMC3578765 (PLoS Neglected Tropical Diseases, 2013)
Entries after “also recorded” stand apart in the source; their conditions may differ. Like-named read-outs stand apart in the source and are kept apart here.

Key:
[1] = test system: DENV4 (DEN4 TVP-360) infection in Huh-7.5; assay: image-based dengue HT/HCA, 10-pt dose-response hit confirmation, DENV4; assay type: cell-based; settings: Dengue virus, DENV4, Huh7.5; Huh-7.5, M.O.I. 0.5, 96 hrs; read-out: EC50 DENV4
Experimental: (§1) An immunofluorescence assay (IFA) used to detect dengue infection was optimized for the dengue HT/HCA. Briefly, cells were fixed with 4% (w/v) paraformaldehyde (PFA) for 20 min at room temperature (Rm T). PFA-fixed cells were treated with 0.25% (v/v) Triton-X for 20 min at Rm T. DENV-infected cells were detected by probing with 4G2 mAb prepared in blocking buffer: DPBS containing 5% FBS for 30 min at 37°C, followed by AlexaFluor-conjugated goat anti-mouse IgG (H+L) (Invitrogen Molecular Probes, USA) prepared in blocking buffer for 30 min at 37°C. Cell nuclei counterstained with 5 µg/mL 4′,6-diamidino-2-phenylindole (DAPI, Sigma-Aldrich, USA). Two washing cycles of DPBS was done after each step of the IFA. After the final washing, digital images were acquired using a high-throughput confocal fluorescence imaging system (Evotec Technologies High-Throughput Cell Analyzer Opera, Perkin Elmer, USA). The digital images were taken from 3 different fields of each well at 20× magnification.
(§2) Acquired images were analyzed using our in-house developed image-mining platform (IM). This platform is designed to do high-content screening and directly access the database of images that were sequentially analyzed with specially designed algorithms developed as a customized plug-in to the IM platform. The results of all the analyses were stored in a centralized database. […] One channel (DAPI-channel) captures the signal emitted by DAPI-stained nuclei at 450 nm, while the other channel (A488-channel) captures the signal emitted by the AlexaFluor 488 dye bound to the dengue E protein-antibody complexes confined in the cytoplasm of dengue-infected cells at 540 nm. To define the percentage of dengue-infected cells and, conversely the non-infected cells, a modified watershed method was applied. Compared to the original watershed algorithm that uses the morphological gradient image, a weighted gradient image is used for the topographic surface, whose weights are defined as the ridge values computed from the eigen values of the original image. The percentage of non-infected cells, which is also defined as the percent inhibition or percent activity, is derived by using the formula: [1−(A488-positive cells/total cells)]×100%.
(§3) The BioFocus kinase inhibitor library were screened against DENV1, DEN2, DENV3 and DENV4 at 10 µM in 0.5% (v/v) DMSO. MOCK-infected Huh-7.5 and IFN-α2A (500 U/mL) were used as positive controls, and the 0.5% DMSO vehicle was used as negative control. Four sets of 15 384-well plates (13 plates designated for test compounds and 2 plates designated for DMSO vehicle control) were used for the primary screening of the BioFocus kinase inhibitor library against each dengue serotype. Each of the 4,000 compounds in the library was tested in single wells. For data normalization and quality control of the screening, each test compound plate contained 16 replicates of the positive and negative controls. After dispensing the test compounds IFN-α2A and DMSO vehicle in the 384-well plates, Huh-7.5 was mixed with DENV1, DENV2, DENV3, or DENV4 to achieve a M.O.I. of 0.5 and dispensed at 5×10^3 cells/well using the Thermo Scientific WellMate automated liquid dispenser. For the MOCK-infected Huh-7.5, the cells were mixed with VM and dispensed under the same conditions as previously stated. Virus infection in the presence of the compounds proceeded at 37°C, 5% CO2 for 96 hrs. Compound activity based on percent inhibition and cell toxicity was assessed by IFA and IM analysis as described above. Scatter-plot distribution of the entire screening was generated using TIBCO Spotfire 4.5.0 (TIBCO Software Inc., Somerville, MA).
(§4) The calculated activity was normalized to a percent inhibition (PI) based on the MOCK-infected cells (100% activity, or zero infection) and dengue-infected cells (0% activity, or maximum measured infection percentage) controls according to the formula: [drawing 1] where: PImeasured - percent inhibition of test compound […]

[2] = test system: DENV1, DENV2, DENV3 and DENV4 infection in Huh-7.5; assay: image-based dengue HT/HCA, all four serotypes (primary screening and overall activity); assay type: cell-based, Dengue virus
Experimental: as §1
Acquired images were analyzed using our in-house developed image-mining platform (IM). This platform is designed to do high-content screening and directly access the database of images that were sequentially analyzed with specially designed algorithms developed as a customized plug-in to the IM platform. The results of all the analyses were stored in a centralized database. […]
The BioFocus kinase inhibitor library were screened against DENV1, DEN2, DENV3 and DENV4 at 10 µM in 0.5% (v/v) DMSO. […] Compound activity based on percent inhibition and cell toxicity was assessed by IFA and IM analysis as described above. […]
as §4

[3] = test system: DENV3 (BR DEN3 290-02) infection in Huh-7.5; assay: image-based dengue HT/HCA, 10-pt dose-response hit confirmation, DENV3; assay type: cell-based; settings: Dengue virus, DENV3, Huh7.5; Huh-7.5, M.O.I. 0.5, 96 hrs; read-out: EC50 DENV3
Experimental: as §1, §2, §3, §4

[4] = test system: DENV2 (BR DEN2 01-01) infection in Huh-7.5; assay: image-based dengue HT/HCA, 10-pt dose-response hit confirmation, DENV2; assay type: cell-based; settings: Dengue virus, DENV2, Huh7.5; Huh-7.5, M.O.I. 0.5, 96 hrs; read-out: EC50 DENV2
Experimental: as §1, §2, §3, §4

[5] = compound toxicity, resazurin reduction assay in uninfected Huh-7.5; assay type: cell-based; settings: human, uninfected Huh-7.5 cells, Huh-7.5 without viral infection, 10-pt DRC
Experimental: The hits identified from the primary screening were also tested at 10 µM against CHIKV-118-GFP infection in HuH-7 cells and evaluated by resazurin reduction assay (RRA). Resazurin (7-Hydroxy-3H-phenoxazin-3-one 10-oxide) is reduced to the red fluorescent resorufin by redox enzymes produced by viable cells, and is a good indication of metabolic capacity, and by extension cell viability. The amount of converted resorufin was measured as relative fluorescence readout (RFU) at excitation/emission of 531/572 nm using a fluorescence spectrophotometer (Victor^3 V Spectrophotometer, Perkin Elmer, USA). Briefly, cells were inoculated with CHIKV-118-GFP at an M.O.I. of 0.5 and seeded in 384-well plates containing reference and primary hit compounds and incubated under humidified conditions for 72 hrs at 37°C. Resazurin solution was added to a final concentration of 10 µM and further incubated for another 12 hrs prior to measurement of RFU. The percent activity of the compounds, reflected by the percent cell viability, was quantified by normalizing against the RFUs of MOCK-infected cells and CHIKV-118-GFP-infected cells. Compounds resulting in normalized RFU ≥70% were considered as positive hits for anti-CHIKV activity.
To confirm the compound activity against dengue viruses, the selected hits from the primary screening were tested in a 10-pt. DRC (2-fold serial dilution from 50 µM) using the same assay described for the dengue HT/HCA. Each concentration of the hit compounds was tested in duplicate wells. Data generated from image analysis of the 10-pt. DRC was plotted and analyzed using the non-linear regression formula: log (inhibitor) vs. response – […] (4 parameters) in GraphPad Prism 5.04. […] Compound toxicity was determined by testing the hit compounds in a 10-pt. DRC against Huh-7.5 in the absence of viral infection and measuring the cell viability using resazurin reduction assay as described above. […] Confirmed hits were selected based on their Selectivity Index (SI), a dimensionless value that indicates the magnitude between cytotoxic concentration and effective concentration, and is calculated as: SI = CC50/EC50.

[6] = test system: DENV1 (Den1 BR/90) infection in Huh-7.5; assay: image-based dengue HT/HCA, 10-pt dose-response hit confirmation, DENV1; assay type: cell-based; settings: Dengue virus, read-out: EC50 DENV1
Experimental: as §1, §2, §3, §4

[7] = test system: DENV1, DENV2, DENV3 and DENV4 in Huh-7.5; assay: plaque reduction assay; assay type: cell-based, Dengue virus; settings: 25 µM, Huh-7.5, 30 pfu per well, 7 days
Experimental: Figure 5 Plaque reduction assay. Huh-7.5 cells grown in 24-well tissue culture plate were inoculated with 30 pfu DENV1, DENV2, DENV3 and DENV4 per well and incubated for 7 days in the presence of compound CND1203 at various concentrations. MOCK-infected wells were inoculated with VM only.

[8] = test system: dengue virus infection (M.O.I. 5) in Huh-7.5; assay: time-of-addition assay; assay type: cell-based; settings: 25 µM added at −2, 0, 0.5, 1, 2, 4 hpi, M.O.I. 5, data not shown
Experimental: Time-of-addition assay, a strategy to determine the stage of inhibition during the viral infection cycle, has been used to characterize the mode of action of some inhibitors of dengue viral entry (NITD Compound 6), viral replication (NITD-982) and early translation (NITD-2636), [47], [53]. The inhibitor is added at different time points during viral infection and monitored for expression of the viral proteins, replication of the genome or production of infectious progeny virions. […] Compound CND1203 was used for the time-of-addition assay, adding 25 µM at different time points (−2 hpi, 0 hpi, 0.5 hpi, 1 hpi, 2 hpi, 4 hpi) of the dengue virus infection (M.O.I. 5) in Huh-7.5. […] Aminothiazole-based compounds have previously been implicated in the inhibition of HCV replication by binding to an allosteric site on the viral polymerase. However, the structure of these active anti-HCV compounds differ from the 2-aminothiazole hit compounds reported in this study in terms of the substitutions on the scaffold. As a consequence, it is unlikely that our hit compounds interact with the viral polymerase.

[9] = test system: BR DEN2 01-01 infection of Huh-7.5; assay: assay validation with reference compounds, 10-pt DRC of percent infection; assay type: cell-based, Dengue virus; settings: Dengue virus, Huh7.5; percent infection normalized against DENV2-infected Huh-7.5, M.O.I. 0.5; read-out: IC50
Experimental: as §1, §2
(§5) In both validation experiments, Huh-7.5 was mixed with DENV1, DENV2, DENV3 or DENV4 at a M.O.I. of 0.5 or VM only for MOCK-infection and dispensed in designated wells using the Thermo Scientific WellMate automated liquid dispenser. For the first validation experiment, the statistical reliability of the dengue HT/HCA was determined by calculating the Z'-factor for the percent infection or percent inhibition. Briefly, the Z'-factor of a defined parameter is calculated using the formula: 1−[(3σp+3σn)/(|μp−μn|)], where the μp, μn, σp and σn are the means (μ) and standard deviations (σ) of the positive (p) and negative (n) controls. For the second validation experiment, the reference compounds were prepared in 2-fold serial dilutions and dispensed in duplicate wells in the 384-well plate, followed by the Huh-7.5 and DENV mixture (M.O.I. 0.5). Percent infection, percent inhibition, and percent cell number were determined using the customized IM platform plug-in. Scatter-plot distribution was generated using TIBCO Spotfire 4.5.0 (TIBCO Software Inc., Somerville, MA). The ten-point dose-response curves (10-pt DRCs) were plotted using the non-linear regression formula: log (inhibitor) vs. response – variable slope (4 parameters), available in GraphPad Prism 5.04 (GraphPad Software Inc., San Diego, CA). The top and bottom values of the reference compounds were unconstrained when the curve fittings of the 10-pt. DRCs were generated.

[10] = in vitro; settings: human
Experimental: Acquired images were analyzed using our in-house developed image-mining platform (IM). This platform is designed to do high-content screening and directly access the database of images that were sequentially analyzed with specially designed algorithms developed as a customized plug-in to the IM platform. The results of all the analyses were stored in a centralized database. […] To define the percentage of dengue-infected cells and, conversely the non-infected cells, a modified watershed method was applied. Compared to the original watershed algorithm that uses the morphological gradient image, a weighted gradient image is used for the topographic surface, whose weights are defined as the ridge values computed from the eigen values of the original image. The percentage of non-infected cells, which is also defined as the percent inhibition or percent activity, is derived by using the formula: [1−(A488-positive cells/total cells)]×100%.
as §5, with “The ten-point dose-response curves (10-pt DRCs) were plotted using the non-linear regression formula: log (inhibitor) vs. response – variable slope (4 parameters), available in GraphPad Prism 5.04 (GraphPad Software Inc., San Diego, CA).” left out
Similarly, the percent cell number was normalized based on the measured cell number in MOCK-infected (100% cell number) controls according to the formula: % cell number = (Cmeasured/μCMOCK-infect)×100%, where Cmeasured is the measured cell number in the test well and μCMOCK-infect is the average cell number in the MOCK-infected controls. The statistical validity of the dengue high-throughput screening was determined by calculating for the Z'-factor using the 0.5% DMSO-treatment and MOCK-infected Huh-7.5 as negative and positive controls, respectively. In addition, other parameters, including DRC of a reference compound, were used to evaluate the assay performance.

[11] = DENV1, Huh7.5, Huh-7.5, M.O.I. 0.5, 96 hrs

Compound | EC50 [1] [µM] | antiviral activity against all four dengue serotypes [2] | EC50 [3] [µM] | EC50 [4] [µM] | CC50 at 72 h [5] [µM] | EC50 [6, 11] [µM] | formation of dengue virus plaques [7] | inhibition of dengue infection in time-of-addition assay [8] | EC50 ([6]; Huh7.5, 96 h) [µM] | IC50 [9] [µM] | CC50 [10] [µM]
COc1ccc(CC(N)c2csc(Nc3ncccn3)n2)cc1 (stereo not shown) [CND1201] | 5 | strong antiviral activities against all four dengue serotypes | 2.6 | 7.6 | > 100 | 0.9 |  |  |  |  | 
NC(c1csc(Nc2ncccn2)n1)c1ccccc1Cl (stereo not shown) [CND1203] | 5 | strong antiviral activities against all four dengue serotypes; also recorded: strong antiviral activity against all 4 dengue serotypes | 2.3 | 4.1 | > 100 | 1.7 | blocked the formation of dengue virus plaques | none of the treatments inhibited dengue infection |  |  | 
Nc1ccc(CC(N)c2csc(Nc3ncccn3)n2)cc1 (stereo not shown) [CND1243] | 7.2 | strong antiviral activities against all four dengue serotypes | 1 | 6.2 | > 100 |  |  |  | 4.1 |  | 
NC(=O)c1ncn([C@@H]2O[C@H](CO)[C@@H](O)[C@H]2O)n1 [Ribavirin] |  |  |  |  |  |  |  |  |  | 42.4 | 50.4
